Assay results: patent publication US7605272B2, “IGF-1R inhibitor” (Kyowa Hakko Kirin Co., Ltd., priority 2005, dated 2009)

Experiments:
[1] = system: KMS-11; assay: Cytostatic activity on human multiple myeloma cell line KMS-11 (WST-1); type: cell-based; details: 1 μmol/L, 72 hours; for inhibition at 1 µM: Homo sapiens, KMS-11, 72 h, read-out: cytostatic rate (%) KMS-11 (1 μmol/L)
In short: (§1)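 Cells pre-cultured 24 h at 37 °C, 5% CO2, then exposed 72 h to compound at final 1 or 10 μmol/L (0.1% DMSO). WST-1 added for 2 h, absorbance at 450 nm (ref 690 nm). Cytostatic rate = 100 minus relative growth, with DMSO control as 100% and blank as 0%.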

[2] = system: NCI-H929; assay: Cytostatic activity on human multiple myeloma cell line NCI-H929 (WST-1); type: cell-based; details: 1 μmol/L, 72 hours; for inhibition at 1 µM: Homo sapiens, NCI-H929, 72 h, read-out: cytostatic rate (%) H929 (1 μmol/L)
In short: as §1

[3] = biological target: T1, IGF-1R (Homo sapiens, UniProt P08069); assay: IGF-1R inhibitory activity (kinase reaction, time-resolved fluoroimmunoassay); type: biochemical; details: IGF-1R active recombinant enzyme, test compound 10 μmol/L
T1 construct: purchased Upstate Co. 14-465
T1 sequence (P08069 959-1367 limits assumed): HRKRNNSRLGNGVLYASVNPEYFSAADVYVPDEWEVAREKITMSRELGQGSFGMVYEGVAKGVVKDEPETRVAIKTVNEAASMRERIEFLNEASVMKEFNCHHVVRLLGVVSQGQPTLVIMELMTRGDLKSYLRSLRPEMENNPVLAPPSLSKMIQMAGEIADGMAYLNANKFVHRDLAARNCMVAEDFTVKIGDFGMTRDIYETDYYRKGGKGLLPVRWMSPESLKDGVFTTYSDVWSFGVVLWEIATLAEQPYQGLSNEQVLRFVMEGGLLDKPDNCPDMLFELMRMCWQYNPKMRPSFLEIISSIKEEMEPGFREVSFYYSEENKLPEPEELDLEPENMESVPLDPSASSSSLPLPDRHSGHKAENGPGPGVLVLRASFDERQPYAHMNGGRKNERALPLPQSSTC
In short: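 Compounds were tested at a single 10 μmol/L concentration. Each was incubated with recombinant IGF-1R (200 μg/L), 10 mmol/L ATP, MgCl2/MnCl2 and Na3VO4 (pH 7.5) on immobilized poly(Glu-Tyr) peptide for 30 min at 24° C. Eu-anti-phosphotyrosine time-resolved fluorescence (340/615 nm) gave relative activity against no-compound and no-enzyme wells, reported as % inhibition.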

| SMILES | cytostatic rate (%) KMS-11 (1 μmol/L) [1] [%] | cytostatic rate (%) H929 (1 μmol/L) [2] [%] | inhibitory activity (%) at 10 μmol/L [3] [%] | inhibition at 1 µM [1] [%] | inhibition at 1 µM [2] [%] | inhibition at 10 µM [3] [%] |
| --- | --- | --- | --- | --- | --- | --- |
| COCCN(CCN1CCOCC1)c1ccc(/C=C/c2n[nH]c3ccccc23)c(NC(=O)c2sccc2C)c1 [Compound 267, (E)-N-{2-[2-(1H-indazol-3-yl)vinyl]-5-[N-(2-methoxyethyl)-2-(morpholinoethyl)amino]phenyl}-3-methylthiophene-2-carboxamide] | 133.8 | 118.1 | 100.3 |  |  |  |
| Cc1ccsc1C(=O)Nc1cc(CN2CCN(CCC#N)CC2)ccc1/C=C/c1n[nH]c2ccccc12 [Compound 268, (E)-N-{5-[4-(2-cyanoethyl)piperazin-1-ylmethyl]-2-[2-(1H-indazol-3-yl)vinyl]phenyl}-3-methylthiophene-2-carboxamide] |  |  |  | 129 | 118 | 101 |
| CC(=O)N1CCN(Cc2ccc(/C=C/c3n[nH]c4ccccc34)c(NC(=O)c3sccc3C)c2)CC1 [Compound 269, (E)-N-{5-(4-acetylpiperazin-1-ylmethyl)-2-[2-(1H-indazol-3-yl)vinyl]phenyl}-3-methylthiophene-2-carboxamide] |  |  |  | 132 | 119 | 101 |
| Cc1ccsc1C(=O)Nc1cc(CN2CCN(C=O)CC2)ccc1/C=C/c1n[nH]c2ccccc12 [Compound 270, (E)-N-{5-(4-formylpiperazin-1-ylmethyl)-2-[2-(1H-indazol-3-yl)vinyl]phenyl}-3-methylthiophene-2-carboxamide] |  |  |  | 129 | 121 | 100 |
| COCCN1CCN(Cc2ccc(/C=C/c3n[nH]c4ccccc34)c(NC(=O)c3sccc3C)c2)CC1 [Compound 271, (E)-N-{2-[2-(1H-indazol-3-yl)vinyl]-5-[4-(2-methoxyethyl)piperazin-1-ylmethyl]phenyl}-3-methylthiophene-2-carboxamide] |  |  |  | 123 | 119 | 102 |
| Cc1ccsc1C(=O)Nc1cc(N2CCN(S(C)(=O)=O)CC2)ccc1/C=C/c1n[nH]c2ccccc12 [Compound 272, (E)-N-{2-[2-(1H-indazol-3-yl)vinyl]-5-(4-methanesulfonylpiperazin-1-yl)phenyl}-3-methylthiophene-2-carboxamide] |  |  |  | 135 | 120 | 101 |
| Cc1ccsc1C(=O)Nc1cc(N2CCN(CCO)CC2)ccc1/C=C/c1n[nH]c2ccccc12 [Compound 273, (E)-N-{5-[4-(2-hydroxyethyl)piperazin-1-yl]-2-[2-(1H-indazol-3-yl)vinyl]phenyl}-3-methylthiophene-2-carboxamide] |  |  |  | 111 | 115 | 104 |
| Cc1ccsc1C(=O)Nc1cc(N2CCNCC2)ccc1/C=C/c1n[nH]c2ccccc12 [Compound 274, (E)-N-{2-[2-(1H-indazol-3-yl)vinyl]-5-piperazin-1-ylphenyl}-3-methylthiophene-2-carboxamide] |  |  |  | 108 | 114 | 104 |
| COCCOc1ccc(/C=C/c2n[nH]c3ccccc23)c(NC(=O)c2sccc2C)c1 [Compound 275, (E)-N-{2-[2-(1H-indazol-3-yl)vinyl]-5-(2-methoxyethoxy)phenyl}-3-methylthiophene-2-carboxamide] |  |  |  | 116 | 118 | 98.6 |
| Cc1ccsc1C(=O)Nc1cc(CN2CCN(CCCO)CC2)ccc1/C=C/c1n[nH]c2ccccc12 [Compound 277, (E)-N-{5-[4-(3-hydroxypropyl)piperazin-1-ylmethyl]-2-[2-(1H-indazol-3-yl)vinyl]phenyl}-3-methylthiophene-2-carboxamide] |  |  |  | 107 | 119 | 99.5 |
| COCCN1CCN(c2ccc(/C=C/c3n[nH]c4ccccc34)c(NC(=O)c3sccc3C)c2)CC1 [Compound 279, (E)-N-{2-[2-(1H-indazol-3-yl)vinyl]-5-[4-(2-methoxyethyl)piperazin-1-yl]phenyl}-3-methylthiophene-2-carboxamide] |  |  |  | 111 | 112 | 98.2 |
| Cc1ccsc1C(=O)Nc1cc(N(C)CCO)ccc1/C=C/c1n[nH]c2ccccc12 [Compound 280] | 109.0 | 112.2 | 97.6 |  |  |  |
| Cc1ccsc1C(=O)Nc1cc(C(=O)N2CCN(CCO)CC2)ccc1/C=C/c1n[nH]c2ccccc12 [Compound 281, (E)-N-{5-[4-(2-hydroxyethyl)piperazin-1-ylcarbonyl]-2-[2-(1H-indazol-3-yl)vinyl]phenyl}-3-methylthiophene-2-carboxamide] |  |  |  | 115 | 128 | 97.2 |
| Cc1ccsc1C(=O)Nc1cc(C(=O)NCCN2CCOCC2)ccc1/C=C/c1n[nH]c2ccccc12 [Compound 282, (E)-N-(2-[2-(1H-indazol-3-yl)vinyl]-5-{N-[2-(morpholin-4-yl)ethyl]carbamoyl}phenyl)-3-methylthiophene-2-carboxamide] |  |  |  | 123 | 130 | 99.2 |
| CNC1CCN(C(=O)c2ccc(/C=C/c3n[nH]c4ccccc34)c(NC(=O)c3sccc3C)c2)C1 (stereo not drawn) [Compound 283, (E)-N-{2-[2-(1H-indazol-3-yl)vinyl]-5-[3-(methylamino)pyrrolidin-1-ylcarbonyl]phenyl}-3-methylthiophene-2-carboxamide] |  |  |  | 116 | 128 | 101 |
| COCCN(CCN(C)C)c1ccc(/C=C/c2n[nH]c3ccccc23)c(NC(=O)c2sccc2C)c1 [Compound 284, (E)-N-{5-[N-(2-dimethylaminoethyl)-2-(methoxyethyl)amino]-2-[2-(1H-indazol-3-yl)vinyl]phenyl}-3-methylthiophene-2-carboxamide] | 130.8 | 121.2 | 97.5 |  |  |  |
| O=C(Nc1cc(C(=O)N2CCN(CCO)CC2)ccc1/C=C/c1n[nH]c2ccccc12)c1cccs1 [Compound 289, (E)-N-{5-[4-(2-hydroxyethyl)piperazin-1-ylcarbonyl]-2-[2-(1H-indazol-3-yl)vinyl]phenyl}thiophene-2-carboxamide] |  |  |  | 73.6 | 102 | 93.5 |
| COc1cc(/C=C/c2n[nH]c3ccccc23)c(NC(=O)c2sccc2C)cc1OCCCN1CCOCC1 [Compound 292, (E)-N-{2-[2-(1H-indazol-3-yl)vinyl]-4-methoxy-5-[3-(morpholin-4-yl)propyloxy]phenyl}-3-methylthiophene-2-carboxamide] |  |  |  | 122 | 113 | 97.2 |
| COc1cc(/C=C/c2n[nH]c3ccccc23)c(NC(=O)c2sccc2C)cc1OCCN1CCOCC1 [Compound 293, (E)-N-{2-[2-(1H-indazol-3-yl)vinyl]-4-methoxy-5-[2-(morpholin-4-yl)ethoxy]phenyl}-3-methylthiophene-2-carboxamide] |  |  |  | 119 | 110 | 98.9 |
| Cc1ccsc1C(=O)Nc1cc(CN2CCC(N(C)C)C2)ccc1/C=C/c1n[nH]c2ccccc12 (stereo not drawn) [Compound 294, (E)-N-{5-[3-(dimethylamino)pyrrolidin-1-ylmethyl]-2-[2-(1H-indazol-3-yl)vinyl]phenyl}-3-methylthiophene-2-carboxamide] |  |  |  | 116 | 118 | 98.2 |
| Cc1ccsc1C(=O)Nc1cc(C(=O)N2CCC(N(C)C)C2)ccc1/C=C/c1n[nH]c2ccccc12 (stereo not drawn) [Compound 295, (E)-N-{5-[3-(dimethylamino)pyrrolidin-1-ylcarbonyl]-2-[2-(1H-indazol-3-yl)vinyl]phenyl}-3-methylthiophene-2-carboxamide] |  |  |  | 118 | 118 | 97.2 |
| Cc1ccsc1C(=O)Nc1cc(CN2CCC(N3CCOCC3)CC2)ccc1/C=C/c1n[nH]c2ccccc12 [Compound 296, (E)-N-{2-[2-(1H-indazol-3-yl)vinyl]-5-[4-(morpholin-4-yl)piperidin-1-ylmethyl]phenyl}-3-methylthiophene-2-carboxamide] |  |  |  | 112 | 117 | 99.9 |
| Cc1ccsc1C(=O)Nc1cc(C(=O)N(C)C2CCNCC2)ccc1/C=C/c1n[nH]c2ccccc12 [Compound 297, (E)-N-{2-[2-(1H-indazol-3-yl)vinyl]-5-[N-methyl-N-(piperidine-4-yl)carbamoyl]phenyl}-3-methylthiophene-2-carboxamide] |  |  |  | 94.5 | 116 | 101 |
| COCCN(C)CCCOc1cc(NC(=O)c2sccc2C)c(/C=C/c2n[nH]c3ccccc23)cc1OC [Compound 298, (E)-N-{2-[2-(1H-indazol-3-yl)vinyl]-4-methoxy-5-{3-[N-(2-methoxyethyl)methylamino]propyloxy}phenyl}-3-methylthiophene-2-carboxamide] |  |  |  | 110 | 117 | 94.2 |
| CCN(CC)CCCOc1cc(NC(=O)c2sccc2C)c(/C=C/c2n[nH]c3ccccc23)cc1OC [Compound 300, (E)-N-{5-[3-(diethylamino)propyloxy]-2-[2-(1H-indazol-3-yl)vinyl]-4-methoxyphenyl}-3-methylthiophene-2-carboxamide] |  |  |  | 116 | 119 | 97.2 |
